Measurements taken from publication PMC4773988, “Structure-based Inhibitor Design for the Intrinsically Disordered Protein c-Myc” (Scientific Reports, 2016).

Tests used:
Solubility in water = assay type: physicochemical
[1] = cited from earlier work

| Solubility in water (Solubility in water) | Molecule | Cell penetration [1] |
| --- | --- | --- |
| less soluble in water | Cc1ccccc1C(=O)NC(NC(=S)Nc1cc(Cl)cc(Cl)c1Cl)C(Cl)(Cl)Cl (stereo not drawn) [PKUMDL-YC-1204] |  |
| less soluble in water | O=C(NC(NC(=S)Nc1ccc(I)cc1)C(Cl)(Cl)Cl)OCc1ccccc1 (stereo not drawn) [PKUMDL-YC-1203] |  |
|  | JY-3-094 | penetrates cells poorly |
